In ChEMBL document CHEMBL1140042, “A 4-aminobenzoic acid derivative as novel lead for selective inhibitors of multidrug resistance-associated proteins” (Bioorg Med Chem Lett, 2008):

Key:
[1] = molecular target: ATP-dependent translocase ABCB1 (Homo sapiens, UniProt P08183); assay: Inhibition of P-gp in human A2780 cells; assay type: cell-based; details: for Activity: human, a2780
[2] = molecular target: ATP-binding cassette sub-family C member 2 (Homo sapiens, UniProt Q92887); assay: Inhibition of human MRP2 expressed in dog MDCK2 cells; assay type: cell-based, MDCK-II; details: for Activity: human, mdck-ii
[3] = molecular target: Multidrug resistance-associated protein 1 (Homo sapiens, UniProt P33527); assay: Inhibition of human MRP1 in human 2008 cells assessed as increase in calcein-AM accumulation; assay type: cell-based
Chain of Multidrug resistance-associated protein 1 (P33527 whole entry): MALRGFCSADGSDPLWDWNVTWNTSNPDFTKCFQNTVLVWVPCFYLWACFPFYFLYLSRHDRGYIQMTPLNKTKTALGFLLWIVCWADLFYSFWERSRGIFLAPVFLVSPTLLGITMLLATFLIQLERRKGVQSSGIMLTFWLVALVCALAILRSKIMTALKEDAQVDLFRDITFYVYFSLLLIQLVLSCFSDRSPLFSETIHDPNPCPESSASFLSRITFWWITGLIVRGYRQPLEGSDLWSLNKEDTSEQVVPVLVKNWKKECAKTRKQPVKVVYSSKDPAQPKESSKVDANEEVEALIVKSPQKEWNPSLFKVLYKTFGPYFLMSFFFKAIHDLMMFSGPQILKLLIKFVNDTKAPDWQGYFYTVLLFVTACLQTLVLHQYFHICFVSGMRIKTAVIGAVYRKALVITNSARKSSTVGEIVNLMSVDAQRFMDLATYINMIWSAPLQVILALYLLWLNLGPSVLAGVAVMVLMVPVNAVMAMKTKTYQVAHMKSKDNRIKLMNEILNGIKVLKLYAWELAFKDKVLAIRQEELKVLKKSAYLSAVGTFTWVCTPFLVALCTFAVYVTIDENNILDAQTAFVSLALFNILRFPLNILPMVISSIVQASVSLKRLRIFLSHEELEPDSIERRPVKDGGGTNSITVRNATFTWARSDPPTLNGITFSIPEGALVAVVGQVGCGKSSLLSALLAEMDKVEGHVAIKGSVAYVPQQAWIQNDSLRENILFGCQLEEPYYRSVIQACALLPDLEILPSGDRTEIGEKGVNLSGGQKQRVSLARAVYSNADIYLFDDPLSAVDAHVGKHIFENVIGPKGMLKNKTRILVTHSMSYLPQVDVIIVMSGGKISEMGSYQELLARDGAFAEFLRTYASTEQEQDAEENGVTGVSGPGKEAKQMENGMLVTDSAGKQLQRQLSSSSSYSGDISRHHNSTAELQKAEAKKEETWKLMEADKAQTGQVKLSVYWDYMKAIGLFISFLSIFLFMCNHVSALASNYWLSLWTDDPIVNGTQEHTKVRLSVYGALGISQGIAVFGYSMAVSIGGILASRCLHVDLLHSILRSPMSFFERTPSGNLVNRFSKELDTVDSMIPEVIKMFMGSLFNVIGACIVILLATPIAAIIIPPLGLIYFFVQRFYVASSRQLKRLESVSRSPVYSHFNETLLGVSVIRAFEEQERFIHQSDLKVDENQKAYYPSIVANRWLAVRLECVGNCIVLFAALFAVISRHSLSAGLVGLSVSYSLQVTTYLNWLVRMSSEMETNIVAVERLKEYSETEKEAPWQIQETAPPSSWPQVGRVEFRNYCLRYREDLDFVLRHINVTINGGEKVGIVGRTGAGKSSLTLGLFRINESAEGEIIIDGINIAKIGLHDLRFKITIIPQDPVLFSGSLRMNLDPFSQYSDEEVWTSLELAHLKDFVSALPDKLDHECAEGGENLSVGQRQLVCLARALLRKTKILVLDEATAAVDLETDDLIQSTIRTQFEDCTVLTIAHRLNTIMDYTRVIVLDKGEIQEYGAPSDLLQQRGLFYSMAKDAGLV

Chain of ATP-dependent translocase ABCB1 (P08183 whole entry): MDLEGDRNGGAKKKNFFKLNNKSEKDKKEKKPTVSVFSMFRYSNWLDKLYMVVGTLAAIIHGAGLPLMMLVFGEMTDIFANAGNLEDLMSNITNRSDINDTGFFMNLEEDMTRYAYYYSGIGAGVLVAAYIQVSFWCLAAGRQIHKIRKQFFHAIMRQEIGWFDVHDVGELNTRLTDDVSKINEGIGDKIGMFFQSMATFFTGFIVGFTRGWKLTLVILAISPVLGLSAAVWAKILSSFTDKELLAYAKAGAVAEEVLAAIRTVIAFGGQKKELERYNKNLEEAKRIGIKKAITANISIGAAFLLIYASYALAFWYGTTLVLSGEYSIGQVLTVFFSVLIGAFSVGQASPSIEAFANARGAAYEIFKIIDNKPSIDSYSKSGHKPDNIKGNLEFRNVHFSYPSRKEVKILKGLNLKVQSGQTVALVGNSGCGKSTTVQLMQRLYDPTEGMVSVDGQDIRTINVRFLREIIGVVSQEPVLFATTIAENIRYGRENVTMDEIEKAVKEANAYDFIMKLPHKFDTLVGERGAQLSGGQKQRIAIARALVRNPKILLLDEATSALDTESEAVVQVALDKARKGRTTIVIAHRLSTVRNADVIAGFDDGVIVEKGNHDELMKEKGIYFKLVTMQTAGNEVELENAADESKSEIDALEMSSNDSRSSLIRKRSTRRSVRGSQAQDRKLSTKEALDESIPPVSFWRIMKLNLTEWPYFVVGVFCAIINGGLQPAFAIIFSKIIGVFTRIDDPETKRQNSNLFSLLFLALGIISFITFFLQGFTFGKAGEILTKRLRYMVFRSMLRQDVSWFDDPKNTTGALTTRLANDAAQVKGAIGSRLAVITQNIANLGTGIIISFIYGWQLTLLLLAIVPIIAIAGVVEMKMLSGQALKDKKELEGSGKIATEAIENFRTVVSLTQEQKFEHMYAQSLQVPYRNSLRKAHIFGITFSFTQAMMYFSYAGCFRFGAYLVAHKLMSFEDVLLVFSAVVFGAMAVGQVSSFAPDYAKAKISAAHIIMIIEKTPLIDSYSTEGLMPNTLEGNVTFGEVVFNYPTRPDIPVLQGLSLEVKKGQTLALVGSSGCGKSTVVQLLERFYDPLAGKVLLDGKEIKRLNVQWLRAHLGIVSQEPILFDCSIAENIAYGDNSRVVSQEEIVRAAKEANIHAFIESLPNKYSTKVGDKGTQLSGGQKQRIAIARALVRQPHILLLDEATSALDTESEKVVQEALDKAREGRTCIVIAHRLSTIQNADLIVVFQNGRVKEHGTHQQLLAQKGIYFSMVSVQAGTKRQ
Chain of ATP-binding cassette sub-family C member 2 (Q92887 whole entry): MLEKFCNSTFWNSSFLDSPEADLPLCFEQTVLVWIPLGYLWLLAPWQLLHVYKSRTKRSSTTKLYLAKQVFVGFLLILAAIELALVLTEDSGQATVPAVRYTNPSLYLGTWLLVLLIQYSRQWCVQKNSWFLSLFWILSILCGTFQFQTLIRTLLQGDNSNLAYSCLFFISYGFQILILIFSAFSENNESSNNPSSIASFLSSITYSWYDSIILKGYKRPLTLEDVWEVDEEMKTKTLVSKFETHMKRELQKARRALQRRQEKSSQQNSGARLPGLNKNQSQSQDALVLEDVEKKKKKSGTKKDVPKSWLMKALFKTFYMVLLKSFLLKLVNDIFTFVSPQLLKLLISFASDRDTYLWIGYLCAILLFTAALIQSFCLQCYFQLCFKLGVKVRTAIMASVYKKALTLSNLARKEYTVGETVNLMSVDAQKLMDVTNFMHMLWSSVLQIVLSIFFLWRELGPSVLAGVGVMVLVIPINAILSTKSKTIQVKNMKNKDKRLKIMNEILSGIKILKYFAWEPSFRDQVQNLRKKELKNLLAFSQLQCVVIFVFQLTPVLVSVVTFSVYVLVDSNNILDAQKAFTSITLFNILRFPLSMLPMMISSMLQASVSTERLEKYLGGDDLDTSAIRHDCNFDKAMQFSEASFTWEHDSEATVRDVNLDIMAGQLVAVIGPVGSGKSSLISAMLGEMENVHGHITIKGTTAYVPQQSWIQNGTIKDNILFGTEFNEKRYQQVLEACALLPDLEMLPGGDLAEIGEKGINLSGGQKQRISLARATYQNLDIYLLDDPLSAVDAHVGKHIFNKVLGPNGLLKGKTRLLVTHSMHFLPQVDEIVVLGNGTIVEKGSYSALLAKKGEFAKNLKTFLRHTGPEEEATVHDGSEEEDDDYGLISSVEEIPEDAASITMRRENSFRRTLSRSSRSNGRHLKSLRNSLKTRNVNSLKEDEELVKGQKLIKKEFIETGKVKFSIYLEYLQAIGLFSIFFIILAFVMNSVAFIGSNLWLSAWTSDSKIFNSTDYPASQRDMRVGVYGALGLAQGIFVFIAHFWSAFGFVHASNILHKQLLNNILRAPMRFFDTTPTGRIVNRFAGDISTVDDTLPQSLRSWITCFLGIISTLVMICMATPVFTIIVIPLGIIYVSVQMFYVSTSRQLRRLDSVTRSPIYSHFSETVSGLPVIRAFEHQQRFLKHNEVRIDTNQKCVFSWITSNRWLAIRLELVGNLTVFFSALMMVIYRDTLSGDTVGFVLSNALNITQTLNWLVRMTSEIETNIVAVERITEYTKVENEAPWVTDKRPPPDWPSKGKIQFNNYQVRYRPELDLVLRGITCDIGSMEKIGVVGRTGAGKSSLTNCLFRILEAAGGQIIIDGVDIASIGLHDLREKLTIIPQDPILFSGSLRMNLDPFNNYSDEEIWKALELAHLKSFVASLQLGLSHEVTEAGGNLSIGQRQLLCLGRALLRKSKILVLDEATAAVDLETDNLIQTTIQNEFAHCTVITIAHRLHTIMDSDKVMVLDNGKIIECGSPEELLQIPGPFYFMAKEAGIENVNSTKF

Compound	IC50 [1]	Activity [2]	Activity [1]	IC50 [2]	Activity [3]
Nc1nc2sc3c(c2c(=O)s1)CCCC3	> 200 µM	Not Active	–	–	–
COc1ccc2c(c1)c(CC(=O)O)c(C)n2C(=O)c1ccc(Cl)cc1 [INDOMETHACIN]	–	–	Not Active	235 µM	–

Second part, the molecule after the results:

IC50 [1]	Activity [2]	Activity [1]	IC50 [2]	Activity [3]	Compound
–	–	Not Active	> 200 µM	–	CCOC(=O)c1c(NC(=S)Nc2ccc(C(=O)O)cc2)sc2c1CCCC2
–	Not Active	Not Active	–	–	O=C(Nc1nc2sc3c(c2c(=O)s1)CCCC3)c1ccccc1
–	–	Not Active	21.5 µM	Active	O=C(O)c1ccc(Nc2nc3sc4c(c3c(=O)s2)CCCC4)cc1
–	–	Not Active	20.7 µM	–	CN(C)C(=O)CCSC(SCCC(=O)[O-])c1cccc(/C=C/c2ccc3ccc(Cl)cc3n2)c1.[Na+] (stereo not drawn)
